Test results taken from ChEMBL document CHEMBL3734655, “Identification of camphor derivatives as novel M2 ion channel inhibitors of influenza A virus” (Medchemcomm, 2015).
The source made the active and inactive calls. The calls are words filed in the database; no cut-off is given here.

Legend:
Influenza A virus [1] = assay: Antiviral activity against M2 ion channel S31N mutant expressing amantadine-resistant Influenza A virus infected in MDCK cells preincubated for 30 mins followed by viral infection measured after 72 hrs by CCK-8 assay; type: functional, organism-based
Influenza A virus [2] = assay: Antiviral activity against amantadine-resistant Influenza A virus (A/WSN/1933) infected in MDCK cells preincubated for 30 mins followed by viral infection measured after 72 hrs by CCK-8 assay; type: functional, organism-based; conditions: A/WSN/1933(H1N1)

| Structure (SMILES) | Activity (Influenza A virus [1]) | Activity (Influenza A virus [2]) |
| --- | --- | --- |
| CC1(C)[C@@H]2CC[C@@]1(C)[C@@H](CN)C2 | inactive | inactive |
| NC1CC2CCC1C2 (stereo not drawn) | inactive | inactive |
| C[C@@H](N)[C@H]1C[C@H]2CC[C@]1(C)C2(C)C.Cl | inactive | inactive |
| N[C@H]1C[C@@H]2CC[C@H]1C2 | inactive | inactive |
| C[C@H]1[C@H](N)C[C@@H]2C[C@H]1C2(C)C | inactive | inactive |
| C[C@H]1[C@H]([C@H](C)N)C[C@@H]2C[C@H]1C2(C)C | inactive | inactive |
| CC1(C)[C@@H]2CC[C@@]1(C)[C@@H](N)C2 (relative stereo) | inactive | inactive |
| CC1(C)[C@H]2CC[C@](C)(C2)[C@H]1CN | inactive | inactive |
| C[C@H]1[C@H](CN)C[C@@H]2C[C@H]1C2(C)C | inactive | inactive |
